From paper PMC3905854 (Nucleic Acids Research, 2013)

Assays:
[1] = target: T1, DnaA (wtDnaA) (Escherichia coli, UniProt P03004, H202Y); assay: ATP binding assay
T1 sequence (P03004 1-467 H202Y): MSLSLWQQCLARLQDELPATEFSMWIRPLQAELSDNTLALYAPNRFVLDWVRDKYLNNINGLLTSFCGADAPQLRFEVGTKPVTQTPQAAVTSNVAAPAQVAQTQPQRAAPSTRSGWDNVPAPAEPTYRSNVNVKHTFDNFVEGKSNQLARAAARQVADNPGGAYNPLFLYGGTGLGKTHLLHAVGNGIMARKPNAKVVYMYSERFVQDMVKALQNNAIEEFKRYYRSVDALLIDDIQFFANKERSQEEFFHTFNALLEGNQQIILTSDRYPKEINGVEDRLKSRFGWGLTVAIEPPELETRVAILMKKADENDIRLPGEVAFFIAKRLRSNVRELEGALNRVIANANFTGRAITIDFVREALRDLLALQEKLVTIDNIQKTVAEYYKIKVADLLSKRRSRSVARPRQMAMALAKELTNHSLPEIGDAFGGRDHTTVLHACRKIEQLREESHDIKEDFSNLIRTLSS

[2] = target: Hda (E. coli) (UniProt P69931); assay: SEC

| Kd [1] | stoichiometry N [2] | Compound |
| --- | --- | --- |
| 0.36 µM | – | Nc1ncnc2c1ncn2[C@@H]1O[C@H](COP(=O)(O)OP(=O)(O)OP(=O)(O)O)[C@@H](O)[C@H]1O [ATP] |
| – | 2 | Hda (from UniProt P69931 1-233) (natural protein) |
